“And” between values parts separate entries of the source, which are not always exact repeats. Equal values may be shown once.
Target: T1, human LAT1 (Homo sapiens, UniProt Q01650)
Assay: not given
Assay type: cell-based
Details: 200 μM, 3 min; average of seven experiments

T1 sequence (Q01650 whole entry): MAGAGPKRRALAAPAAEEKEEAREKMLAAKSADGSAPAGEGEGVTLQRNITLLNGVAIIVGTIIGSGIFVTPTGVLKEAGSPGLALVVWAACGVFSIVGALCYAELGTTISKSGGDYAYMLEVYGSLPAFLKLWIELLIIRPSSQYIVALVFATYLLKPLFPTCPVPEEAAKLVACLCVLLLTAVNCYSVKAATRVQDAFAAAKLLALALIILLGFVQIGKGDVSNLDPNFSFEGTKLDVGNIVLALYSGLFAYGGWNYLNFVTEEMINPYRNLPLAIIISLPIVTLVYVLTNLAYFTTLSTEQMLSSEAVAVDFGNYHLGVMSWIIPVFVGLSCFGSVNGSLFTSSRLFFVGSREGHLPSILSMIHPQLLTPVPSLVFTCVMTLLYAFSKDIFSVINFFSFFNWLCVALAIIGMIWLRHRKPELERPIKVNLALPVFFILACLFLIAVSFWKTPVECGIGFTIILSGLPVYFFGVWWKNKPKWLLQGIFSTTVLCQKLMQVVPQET
T1 sequence (P08195 102-630 partner): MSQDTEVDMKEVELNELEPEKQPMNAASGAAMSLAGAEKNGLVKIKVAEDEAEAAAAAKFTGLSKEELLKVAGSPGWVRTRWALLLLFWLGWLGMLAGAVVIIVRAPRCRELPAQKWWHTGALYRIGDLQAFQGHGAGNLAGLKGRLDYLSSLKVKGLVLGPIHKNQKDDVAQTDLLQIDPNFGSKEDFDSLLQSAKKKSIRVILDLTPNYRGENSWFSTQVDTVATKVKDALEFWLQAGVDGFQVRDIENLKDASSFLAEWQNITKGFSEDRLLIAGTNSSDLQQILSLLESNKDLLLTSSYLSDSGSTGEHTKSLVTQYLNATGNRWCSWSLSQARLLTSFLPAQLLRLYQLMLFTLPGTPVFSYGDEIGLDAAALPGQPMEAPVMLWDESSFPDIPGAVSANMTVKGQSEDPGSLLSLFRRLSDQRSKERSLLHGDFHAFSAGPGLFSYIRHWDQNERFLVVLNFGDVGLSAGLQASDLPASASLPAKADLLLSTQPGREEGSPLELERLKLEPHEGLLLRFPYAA

SMILES	efflux rate of [3H]-gabapentin
N[C@@H](Cc1ccccc1)C(=O)O [Compound 50, L-phenylalanine, reference compound]	2.7 fmol/min and 2.7 ± 0.3 fmol/min

Same assay, conditions: based on trans-stimulation assay

SMILES	LAT1 substrate activity (in words)
N[C@@](Cc1ccccc1)(Cc1c[nH]cn1)C(=O)O [Compound 107]	inactive
COC(=O)c1cccc(C[C@@H](N)C(=O)O)c1 [Compound 79-D]	potentially not a substrate
Cc1cc(C[C@H](N)C(=O)O)cc(C(=O)O)c1 [Compound 64]	lost activity relative to their parent compounds
N[C@@H](Cc1cccc(C(=O)O)c1)C(=O)O [Compound 83]	LAT1 substrates
N[C@@H](Cc1cccc(C(=O)OCCO)c1)C(=O)O [Compound 82]	substrates of LAT1
C[C@](N)(Cc1ccccc1)C(=O)O [Compound 92, α-methyl phenylalanine]	substrates
CSCC[C@@](N)(Cc1ccccc1)C(=O)O [Compound 98-D]	lost all activity
N[C@@H](Cc1cccc(CC(=O)O)c1)C(=O)O [Compound 84]	nonsubstrates
CC(N)(Cc1ccccc1)C(=O)O (stereo in doubt) [Compound 92-D, α-methyl phenylalanine]	substrates
N[C@@H](Cc1cn(Cc2ccccc2)cn1)C(=O)O [Compound 59, benzyl histidine]	substrates
NCc1cccc(C[C@H](N)C(=O)O)c1 [Compound 74]	LAT1 substrates
NC(Cc1ccccc1)(Cc1ccccc1)C(=O)O [Compound 93]	inactive
N[C@@H](CCC(=O)O)C(=O)O [Compound 57, L-Glu, reference compound]	none of which were LAT1 substrates
NCCCC[C@H](N)C(=O)O [Compound 55, L-Lys, reference compound]	none of which were LAT1 substrates
CC(C)(C)OC(=O)c1cccc(C[C@H](N)C(=O)O)c1 [Compound 81]	substrates of LAT1
COC(=O)c1cc(C)cc(C[C@H](N)C(=O)O)c1 [Compound 63]	lost activity relative to their parent compounds

Target: T1, human LAT1
Assay: cis-inhibition assay: inhibition of [3H]-gabapentin uptake into HEK-hLAT1 cells
Assay type: cell-based
Details: L vs D isomer

SMILES	selectivity for the L isomers in cis-inhibition assay
CC[C@H](C)[C@H](N)C(=O)O [Compound 47, L-Ile]	> 20 fold
N[C@@H](Cc1c[nH]cn1)C(=O)O [Compound 53, L-histidine]	> 20 fold
CC(C)[C@H](N)C(=O)O [Compound 49, L-Val]	> 20 fold

Same assay, conditions: cis-inhibition

SMILES	LAT1 ligand potency / affinity (in words)
N[C@@H](Cc1cccc(Cc2ccccc2)c1)C(=O)O [Compound 69]	the most potent ligands
N[C@@H](Cc1cccc(-c2ccccc2)c1)C(=O)O [Compound 70]	the most potent ligands

Test system: LAT1
Assay: not given
Details: Xenopus laevis oocytes; cited from earlier work

SMILES	Km
N[C@@H](Cc1ccccc1)C(=O)O [Compound 50, L-phenylalanine, reference compound]	14.2 µM
N[C@H](Cc1ccccc1)C(=O)O [Compound 50-D, D-Phe]	121 µM
